Each molecule was assayed against GCN2 (Homo sapiens, UniProt Q9P2K8) (assay: TR-FRET biochemical assay for inhibition of GCN2 (Example 108, for Examples 73-105)).
Sequence of GCN2 (Q9P2K8 whole entry): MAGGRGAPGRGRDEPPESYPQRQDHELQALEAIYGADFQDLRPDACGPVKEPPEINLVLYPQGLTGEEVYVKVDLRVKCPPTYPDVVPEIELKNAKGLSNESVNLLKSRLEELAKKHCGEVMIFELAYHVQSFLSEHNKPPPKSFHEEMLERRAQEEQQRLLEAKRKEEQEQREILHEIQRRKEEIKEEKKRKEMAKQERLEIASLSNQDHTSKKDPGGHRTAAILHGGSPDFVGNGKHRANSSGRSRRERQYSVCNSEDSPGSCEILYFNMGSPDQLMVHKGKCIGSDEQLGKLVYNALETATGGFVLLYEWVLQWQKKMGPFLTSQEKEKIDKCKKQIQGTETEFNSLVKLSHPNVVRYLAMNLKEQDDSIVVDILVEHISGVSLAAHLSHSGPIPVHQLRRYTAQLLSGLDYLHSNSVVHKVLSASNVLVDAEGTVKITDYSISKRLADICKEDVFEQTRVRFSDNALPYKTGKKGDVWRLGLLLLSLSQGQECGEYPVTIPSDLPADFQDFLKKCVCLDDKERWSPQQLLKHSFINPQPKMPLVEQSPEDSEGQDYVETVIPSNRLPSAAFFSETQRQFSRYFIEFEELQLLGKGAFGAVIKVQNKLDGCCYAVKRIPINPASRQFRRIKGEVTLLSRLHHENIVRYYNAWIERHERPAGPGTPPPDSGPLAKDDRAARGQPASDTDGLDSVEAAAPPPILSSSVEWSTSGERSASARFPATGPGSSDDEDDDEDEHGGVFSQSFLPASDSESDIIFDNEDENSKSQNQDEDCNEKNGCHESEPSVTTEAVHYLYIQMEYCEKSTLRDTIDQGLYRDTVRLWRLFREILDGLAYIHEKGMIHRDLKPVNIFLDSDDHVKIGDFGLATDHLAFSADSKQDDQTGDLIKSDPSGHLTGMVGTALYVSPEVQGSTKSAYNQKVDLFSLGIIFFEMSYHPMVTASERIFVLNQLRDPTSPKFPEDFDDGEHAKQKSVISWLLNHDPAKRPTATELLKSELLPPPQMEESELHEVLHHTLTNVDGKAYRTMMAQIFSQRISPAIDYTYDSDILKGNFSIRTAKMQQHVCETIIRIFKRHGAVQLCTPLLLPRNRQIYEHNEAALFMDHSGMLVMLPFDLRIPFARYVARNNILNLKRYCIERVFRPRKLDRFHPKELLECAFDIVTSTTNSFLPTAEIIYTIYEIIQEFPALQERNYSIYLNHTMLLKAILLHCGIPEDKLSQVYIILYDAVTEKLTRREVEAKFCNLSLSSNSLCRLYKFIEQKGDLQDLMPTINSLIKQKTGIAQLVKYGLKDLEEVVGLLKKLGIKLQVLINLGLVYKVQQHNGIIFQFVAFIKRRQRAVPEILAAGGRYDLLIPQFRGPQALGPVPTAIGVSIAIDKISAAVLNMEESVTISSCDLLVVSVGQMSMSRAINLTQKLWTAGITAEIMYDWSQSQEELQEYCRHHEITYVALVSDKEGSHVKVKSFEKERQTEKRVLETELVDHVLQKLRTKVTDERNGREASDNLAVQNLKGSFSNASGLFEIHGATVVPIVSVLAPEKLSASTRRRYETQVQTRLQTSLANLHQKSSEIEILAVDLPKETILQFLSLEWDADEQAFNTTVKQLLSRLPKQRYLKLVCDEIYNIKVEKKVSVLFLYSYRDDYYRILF

IC50 [nM] | SMILES
< 500 | CNC(=O)c1n[nH]c2c(F)c(-c3c(F)ccc(NS(=O)(=O)c4cc(F)cc5c4CCC5O)c3F)ccc12 (stereo not drawn) [Example 76, 6-[2,6-Difluoro-3-(6-fluoro-1-hydroxy-2,3-dihydro-1H-indene-4-sulfonamido)phenyl]-7-fluoro-N-methyl-1H-indazole-3-carboxamide]
< 500 | COc1ncc(Cl)cc1S(=O)(=O)Nc1ccc(F)c(-c2ccc3c(C(=O)NCCN4CCOCC4)n[nH]c3c2F)c1F [Example 86, 6-[3-(5-Chloro-2-methoxypyridine-3-sulfonamido)-2,6-difluorophenyl]-7-fluoro-N-[2-(morpholin-4-yl)ethyl]-1H-indazole-3-carboxamide]
< 500 | COc1ncc(Cl)cc1S(=O)(=O)Nc1ccc(F)c(-c2ccc3c(C(=O)NC4CCC(O)C4)n[nH]c3c2F)c1F (stereo not drawn) [Example 97, 6-[3-(5-Chloro-2-methoxypyridine-3-sulfonamido)-2,6-difluorophenyl]-7-fluoro-N-(3-hydroxycyclopentyl)-1H-indazole-3-carboxamide]
